Laboratory results: paper PMC4710893 (ACS Combinatorial Science, 2015)
Where “and” joins values, the source holds several entries; their conditions need not be identical. Identical values can stand only once.

Key:
K-Ras = conditions: read-out: KD, DCAI binding to K-Ras; cited from earlier work
K-Ras G12V [1] = target: T1, K-Ras G12V (Homo sapiens, UniProt P01116, G12V); test: FA-based competition assay with DCAI; assay type: binding
p-Akt at Thr308 = test: Immunoblot of Akt phosphorylation in H1299 cells; assay type: cell-based, human; conditions: H1299, 0-18 μM for 12 h, EGF 50 ng/mL 10 min
H1299 cells [2] = test: Cellular uptake by flow cytometry; assay type: cell-based, human
p-MEK = test: Immunoblot of MEK phosphorylation in H1299 cells; assay type: cell-based, human; conditions: H1299, 0-18 μM for 12 h, EGF 50 ng/mL 10 min
K-Ras G12V [3] = target: T1, K-Ras G12V; test: Fluorescence anisotropy; assay type: binding
[4] = tested on: H441 human lung cancer cells; test: MTT cell viability assay, H441; assay type: cell-based; conditions: 0-40 μM
H1299 cells [5] = test: Live-cell confocal microscopy of internalization; assay type: cell-based, human; conditions: H1299, 5 μM FITC-labeled peptide, 2 h
[6] = tested on: H1299 lung cancer cell line; test: MTT cell viability assay, H1299; assay type: cell-based, human; conditions: H1299 (Q61K N-Ras), 24 h

Molecule: Cc1[nH]c2cc(Cl)cc(Cl)c2c1CCN [DCAI, 4,6-dichloro-2-methyl-3-aminoethylindole]
- Kd (K-Ras): 1100 µM and ~1100 µM
- IC50 (K-Ras G12V [1]): 840 ± 220 µM

Molecule: bicyclo [Tm-Ala-leu-Phe-Arg-asn-Pra-Ile-Asp-Lys-Phe-Nal-Arg-Arg-Arg-Arg-Dap]-Lys [peptide 54]
- reduction of EGF-induced p-Akt level (p-Akt at Thr308): no effect
- cell entry efficiency, fold lower than cFΦR4 (H1299 cells [2]; H1299, 5 μM FITC-labeled peptide, 2 h): ~3 fold
- cell permeability (H1299 cells [2]; tested for cellular uptake): readily cell permeable
- reduction of EGF-induced p-MEK level (p-MEK): no effect
- lower affinity than peptide 49 (K-Ras G12V [3]; K-Ras G12V, peptide lacking the DCAI moiety): ~80 fold
- Kd (K-Ras G12V [3]; read-out: KDapp, FA, FITC-labeled peptide 100 nM, K-Ras G12V as purified from E. coli, mixture of GTP- and GDP-bound forms): 17 ± 11 µM
- reduction in cell viability [4]: significant reduction in cell viability only at the highest inhibitor concentration tested
- internalization / intracellular distribution (H1299 cells [5]): largely similar intracellular distribution
- LD50 [6]: > 40 µM
